Tests used:
[1] = system: primary rat OPCs; assay: OPC-X-screen: high-content imaging of MBP+ OLs and GFAP+ astrocytes in fibrinogen-treated OPCs; format: cell-based; conditions: for Cell-fate switch of OPCs to GFAP+ cells by fibrinogen: fibrinogen-treated primary rat OPCs; for OPC differentiation to mature MBP+ OLs in the presence of fibrinogen: myelin-promoting compound screen, fibrinogen 1.5 mg/ml, benztropine, clemastine, quetiapine, miconazole, (±)U-50488, DMH1 1 μM, clobetasol 5 μM, XAV-939 0.1 μM
[2] = system: BMP signal transducers SMAD1/5 (phosphorylation); assay: Immunoblot of phospho-SMAD1/5 in fibrinogen-treated primary rat OPCs; format: cell-based
Experimental: (§1) Cells or tissue were lysed in RIPA lysis buffer (Thermo Fisher Scientific) supplemented with protease/phosphatase inhibitor cocktails (Calbiochem) and lysates were cleared by centrifuging at 13,000×g for 15 minutes at 4° C. Equal amounts of protein were loaded in 4%-12% bis-tris gels (Thermo Fisher Scientific) and analyzed by western blotting. Bands were visualized with HRP-conjugated secondary antibodies (Cell Signaling Technology). Densitometry was performed using ImageJ Software (NIH) with values for each band normalized to GAPDH loading controls from the same membrane. Primary antibodies were: Id2 (1:1000, rabbit monoclonal, #M213, CalBioreagents); phospho-Smad1/5 (1:1000, rabbit monoclonal, #9516, Cell Signaling Technology); GAPDH (1:1000, rabbit monoclonal, #2118, Cell Signaling Technology)

[3] = system: BMP target protein ID2; assay: Immunoblot of ID2 protein in fibrinogen-treated primary rat OPCs; format: cell-based
Experimental: as §1

[4] = system: MOG35-55 EAE mice; assay: Chronic MOG35-55 EAE in NG2-CreERTM:RosatdTomato/+ mice, therapeutic treatment; format: in vivo, mouse
[5] = system: NOD-MOG35-55 EAE mice; assay: Progressive NOD-MOG35-55 EAE, therapeutic treatment; format: in vivo, mouse
[6] = cited from earlier work
[7] = fibrinogen 2.5 mg/ml, three-fold serial dilutions 5 μM to 2 nM, 3 days
[8] = fibrinogen alone in the OPC-X assay

Compound: CN1CCC[C@@H]1CCO[C@](C)(c1ccccc1)c1ccc(Cl)cc1 [clemastine]
- OPC differentiation to mature OLs in the presence of fibrinogen (clemastine dose-response) ([1]; fibrinogen 2.5 mg/ml, differentiation media without T3 or growth factors, 3 days): did not enhance OPC differentiation to mature OLs in the presence of fibrinogen
- Cell-fate switch of OPCs to GFAP+ cells by fibrinogen ([1]; 3 days): did not inhibit SMAD1/5 phosphorylation, a key pathway downstream of BMP receptor activation, or rescue OPC cell fate switch to astrocytes
- OPC differentiation to mature MBP+ OLs in the presence of fibrinogen ([1]; 3 days): did not overcome extrinsic inhibition of OPC differentiation by fibrinogen
- Number of MBP+ cells in control conditions ([1]; no fibrinogen, differentiation media without T3 or growth factors, 3 days): increased
- Fibrinogen-induced phosphorylation of SMAD1/5 [2]: did not block
- Fibrinogen-induced expression of ID2 [3]: did not block

Compound: c1cc(-c2cnn3cc(-c4ccc(N5CCNCC5)cc4)cnc23)c2cccnc2c1 [LDN-212854]
- Formation of GFAP+ astrocytes from fibrinogen-treated OPCs, dose response [1, 7]: blocked
- Mature OL (MBP+) differentiation of fibrinogen-treated OPCs, dose response [1, 7]: restored mature OL differentiation
- Clinical scores ([4]; 6 mg/kg twice daily for 14 days starting at peak disease, vs saline): significantly improved
- Formation of OPC-derived GFAP+ astrocytes ([4]; 14 day treatment, fate mapping): abolished
- Proportion of NG2tdTomato+ OPCs differentiated into GST-pi+ mature OLs ([4]; 14 day treatment, fate mapping, vs controls): increased
- ID2 expression in NG2 cells in the EAE white matter ([4]; 14 day treatment, vs saline): decreased
- Myelin damage (myelin circularity, in vivo 2P imaging) ([4]; chronic, vs saline): markedly reduced
- Perivascular NG2 clusters (in vivo 2P imaging) ([4]; chronic, vs saline): markedly reduced
- Demyelination in spinal cord ([4]; vs saline): reduced
- Fibrinogen deposition in spinal cord ([4]; vs saline): reduced
- Group mean of maximum clinical scores ([5]; 30 days treatment, five-point scale, saline 2.36): 1.75
- Clinical scores ([5]; treated for 30 days, vs saline): significantly improved
- Demyelination in spinal cord ([5]; vs saline): reduced
- Fibrinogen deposition in spinal cord ([5]; vs saline): reduced
- Water solubility [6]: water-soluble

Compound: fibrinogen
- Decrease of MBP+ mature OLs as compared to controls [1, 8]: ~60%
- Increase of GFAP+ astrocyte-like cells as compared to controls [1, 8]: ~60%

Compound: OCCOCCN1CCN(C2=Nc3ccccc3Sc3ccccc32)CC1 [quetiapine]
- OPC differentiation to mature MBP+ OLs in the presence of fibrinogen ([1]; 3 days): did not overcome extrinsic inhibition of OPC differentiation by fibrinogen

Compound: Oc1nc(-c2ccc(C(F)(F)F)cc2)nc2c1CSCC2 [XAV-939]
- OPC differentiation to mature MBP+ OLs in the presence of fibrinogen ([1]; 3 days): did not overcome extrinsic inhibition of OPC differentiation by fibrinogen

Compound: CN1[C@@H]2CC[C@H]1C[C@@H](OC(c1ccccc1)c1ccccc1)C2 [benztropine]
- OPC differentiation to mature MBP+ OLs in the presence of fibrinogen ([1]; 3 days): did not overcome extrinsic inhibition of OPC differentiation by fibrinogen

Compound: CC(C)Oc1ccc(-c2cnc3c(-c4ccnc5ccccc45)cnn3c2)cc1 [DMH1]
- Cell-fate switch of OPCs to GFAP+ cells by fibrinogen ([1]; 3 days): abolished
- OPC differentiation to mature MBP+ OLs in the presence of fibrinogen ([1]; 3 days): restored OPC differentiation to mature OLs to control levels
- Fibrinogen-induced phosphorylation of SMAD1/5 [2]: blocked
- Fibrinogen-induced expression of ID2 [3]: blocked
- Water solubility [6]: not water-soluble

Compound: C[C@H]1C[C@H]2[C@@H]3CCC4=CC(=O)C=C[C@]4(C)[C@@]3(F)[C@@H](O)C[C@]2(C)[C@@]1(O)C(=O)CCl [clobetasol]
- OPC differentiation to mature MBP+ OLs in the presence of fibrinogen ([1]; 3 days): did not overcome extrinsic inhibition of OPC differentiation by fibrinogen

Compound: Clc1ccc(COC(Cn2ccnc2)c2ccc(Cl)cc2Cl)c(Cl)c1 (stereo not drawn) [miconazole]
- OPC differentiation to mature MBP+ OLs in the presence of fibrinogen ([1]; 3 days): did not overcome extrinsic inhibition of OPC differentiation by fibrinogen
